We go through 24 molecules from patent US9884832B2 (priority 2011, dated 2018).

The target in the first assay is AM2 S31 (wild-type serine at position 31 in the M2 protein), influenza virus A/Udorn/72 (Influenza A virus, UniProt P0DOF5). The assay is described as follows: cell-based. To be noted: 100 uM; Xenopus oocytes; activity range class; read-out: S31 OOcyte Inhibition at 100 uM (%).
Chain of AM2 S31 (wild-type serine at position 31 in the M2 protein), influenza virus A/Udorn/72 (P0DOF5 whole entry, looked up): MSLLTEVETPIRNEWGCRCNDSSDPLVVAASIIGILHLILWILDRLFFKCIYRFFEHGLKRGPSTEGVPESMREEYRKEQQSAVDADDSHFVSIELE
Broadly, the inhibition is the change of the read-out against control, counted positive when it falls. As to `Brc1ccc(CNC23CC4CC(CC(C4)C2)C3)s1` [Example 81a, N-((5-Bromothiophen-2-yl)methyl)adamantan-1-amine], the inhibition at 100 µM is 31 to 95%.

For the molecule `OC12CC3CC(C1)CC(NCc1ccc(-c4ccccc4)s1)(C3)C2` [Example 191a, 3-[(5-Phenyl-thiophen-2-ylmethyl)-amino]adamantan-1-ol], the inhibition at 100 µM fell in the range of 0 to 30%. Consider `COc1ccsc1CNC12CC3CC(CC(C3)C1)C2` [Example 74a, Adamantan-1-yl-(3-methoxy-thiophen-2-ylmethyl)-amine], for which the inhibition at 100 µM was 31 to 95%. Still for that read-out and setting: to `C[Si](C)(C)c1ccc(CNC23CC4CC(CC(O)(C4)C2)C3)cc1` [Example 193a, (1s,3r,5R,7S)-3-((4-(trimethylsilyl)benzyl)amino)adamantan-1-ol] belongs 0 to 30%. On the same count and under the same terms, to `c1coc(-c2ccc(CNC34CC5CC(CC(C5)C3)C4)s2)c1` [Example 136a, N-((5-(Furan-2-yl)thiophen-2-yl)methyl)adamantan-1-amine] belongs 0 to 30%; to `c1coc(-c2nc(CNC34CC5CC(CC(C5)C3)C4)no2)c1` [Example 160a, N-((5-(furan-2-yl)-1,2,4-oxadiazol-3-yl)methyl)adamantan-1-amine], 0 to 30%; to `OC12CC3CC(C1)CC(NCc1ccc(Cl)s1)(C3)C2` [Example 189a, 3-[(5-Chloro-thiophen-2-ylmethyl)-amino]adamantan-1-ol], 0 to 30%. On to `c1csc(-c2ccc(CNC34CC5CC(CC(C5)C3)C4)o2)c1` [Example 138a, Adamantan-1-yl-(5-thiophen-2-yl-furan-2-ylmethyl)-amine], for which the inhibition at 100 µM was 0 to 30%.

Regarding `c1csc(-c2cc(CNC34CC5CC(CC(C5)C3)C4)no2)c1` [Example 142a, N-((5-(thiophen-2-yl)isoxazol-3-yl)methyl)adamantan-1-amine], the inhibition at 100 µM is 0 to 30%.

Take `Cn1cc(C(F)(F)F)c(-c2ccc(CNC34CC5CC(CC(C5)C3)C4)s2)n1` [Example 155a, N-((5-(1-methyl-4-(trifluoromethyl)-1H-pyrazol-3-yl)thiophen-2-yl)methyl)adamantan-1-amine]: the inhibition at 100 µM lay within 0 to 30%. `c1ccc(-c2ncc(CNC34CC5CC(CC(C5)C3)C4)cn2)nc1` [Example 64a, N-((2-(pyridin-2-yl)pyrimidin-5-yl)methyl)adamantan-1-amine]: the inhibition at 100 µM was 0 to 30%.

Still in this assay, the particulars now being: Table 1; 100 uM; Xenopus oocytes, pH 5.5, -20 mV; read-out: S31 OOcyte Inhibition at 100 uM (%).
Regarding `c1cc(-c2nnn[nH]2)ccc1CNC12CC3CC(CC(C3)C1)C2` [Example 15, Adamantan-1-yl-[4-(1H-tetrazol-5-yl)-benzyl]amine], the inhibition at 100 µM lay within 0 to 30%.

As to `Oc1ccc(CNC23CC4CC(CC(C4)C2)C3)c(O)c1` [Example 46, 4-(Adamantan-1-ylaminomethyl)-benzene-1,3-diol], the inhibition at 100 µM lay in the range of 31 to 95%. The same measure, in the same setting: to `c1ccc2sc(CNC34CC5CC(CC(C5)C3)C4)nc2c1` [Example 91, Adamantan-1-yl-benzothiazol-2-ylmethyl-amine] belongs 0 to 30%; to `COc1cc(O)ccc1CNC12CC3CC(CC(C3)C1)C2` [Example 56, 4-(Adamantan-1-ylaminomethyl)-3-methoxy-phenol], 0 to 30%; to `c1ccc2[nH]c(CNC34CC5CC(CC(C5)C3)C4)nc2c1` [Example 92, Adamantan-1-yl-(1H-benzoimidazol-2-ylmethyl)-amine], 0 to 30%. Take `COC(=O)C(Cc1cnc[nH]1)NCC12CC3CC(CC(C3)C1)C2` (stereo not drawn) [Example 3, 2-[(Adamantan-1-ylmethyl)-amino]-3-(3H-imidazol-4-yl)-propionic acid methyl ester]: the inhibition at 100 µM is 0 to 30%. Still for that read-out and setting: to `c1cnn(-c2ccc(CNC34CC5CC(CC(C5)C3)C4)cc2)c1` [Example 35, Adamantan-1-yl-(4-pyrazol-1-yl-benzyl)-amine] belongs 0 to 30%. Still for that read-out and setting: to `Oc1ccc(CNC23CC4CC(CC(C4)C2)C3)c(O)c1O` [Example 65, 4-(Adamantan-1-ylaminomethyl)-benzene-1,2,3-triol] belongs 0 to 30%.

`CC(=O)Oc1ccc(CNC23CC4CC(CC(C4)C2)C3)cc1` [Example 33, Acetic acid 4-(adamantan-1-ylaminomethyl)-phenyl ester]: the inhibition at 100 µM fell in the range of 31 to 95%.

For the molecule `CC1(C)CCC(NCc2ccc(O)cc2O)CC1` [Example 108, 4-[(4,4-Dimethyl-cyclohexylamino)-methyl]-benzene-1,3-diol], the inhibition at 100 µM was in the range of 31 to 95%. On the same count and under the same terms, to `COc1cc(O)cc(OC)c1CNC12CC3CC(CC(C3)C1)C2` [Example 66, 4-(Adamantan-1-ylaminomethyl)-3,5-dimethoxy-phenol] belongs 31 to 95%; to `N#Cc1ccc(CNC23CC4CC(CC(C4)C2)C3)cc1` [Example 14, 4-(Adamantan-1-ylaminomethyl)-benzonitrile], 31 to 95%.

The assay is the same for the next values; noted with them: Table 3; 100 uM; Xenopus oocytes, pH 5.5, -20 mV; read-out: S31 OOcyte Inhibition at 100 uM (%).
`C[Si](C)(C)c1ccc(CNC23CC4CC(CC(C4)C2)C3)s1` [Example 75b, Adamantan-1-yl-(5-trimethylsilanyl-thiophen-2-ylmethyl)-amine]: the inhibition at 100 µM lay within 0 to 30%.
